Measurements taken from BindingDB's records for doi:10.1021/jm030165t (National Center For Genetic Engineering and Biotechnology …, 2004).

Key:
[1] = In vitro anti-plasmodial activity against Plasmodium falciparum dihydrofolate reductase wild type (TM4/8.2)
[2] = In vitro anti-plasmodial activity against Plasmodium falciparum dihydrofolate reductase […]/C59R/S108N/I164L (V1/S) mutant
[3] = In vitro anti-plasmodial activity against Plasmodium falciparum dihydrofolate reductase N51I/C59R/S108N (W2)
[4] = In vitro anti-plasmodial activity against Plasmodium falciparum dihydrofolate reductase C59R+S108N/I164L (Csl-2) mutant
[5] = In vitro anti-plasmodial activity against Plasmodium falciparum dihydrofolate reductase C59R/S108N (K1CB1) mutant
[6] = biological target: Bifunctional dihydrofolate reductase-thymidylate synthase (Plasmodium falciparum (isolate K1 / Thailand), UniProt P13922); assay: Binding affinity towards wild-type dihydrofolate reductase of Plasmodium falciparum.
Bifunctional dihydrofolate reductase-thymidylate synthase, sequence (P13922 whole entry): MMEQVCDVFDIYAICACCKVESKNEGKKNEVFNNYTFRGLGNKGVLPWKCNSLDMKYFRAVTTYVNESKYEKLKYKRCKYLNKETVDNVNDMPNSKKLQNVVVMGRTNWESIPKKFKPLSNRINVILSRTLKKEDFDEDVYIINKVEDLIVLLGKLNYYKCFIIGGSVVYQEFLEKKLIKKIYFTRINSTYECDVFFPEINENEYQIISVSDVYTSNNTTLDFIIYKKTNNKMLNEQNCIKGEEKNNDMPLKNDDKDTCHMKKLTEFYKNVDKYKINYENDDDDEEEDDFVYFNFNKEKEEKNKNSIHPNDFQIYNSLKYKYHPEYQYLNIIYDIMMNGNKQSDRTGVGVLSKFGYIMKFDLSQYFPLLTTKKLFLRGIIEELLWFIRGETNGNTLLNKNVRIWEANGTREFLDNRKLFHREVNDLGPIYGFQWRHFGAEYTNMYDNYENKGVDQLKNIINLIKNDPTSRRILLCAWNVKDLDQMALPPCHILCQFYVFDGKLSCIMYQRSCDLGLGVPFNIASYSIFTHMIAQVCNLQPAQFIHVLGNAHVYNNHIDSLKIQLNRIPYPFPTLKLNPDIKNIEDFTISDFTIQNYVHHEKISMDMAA

[7] = In vitro anti-plasmodial activity against Plasmodium falciparum dihydrofolate reductase A16V/S108T (T9/94RC17) mutant

SMILES: Nc1nc(N)c(-c2cccc(Cl)c2)c(CCCc2ccccc2)n1
- IC50 [1]: 670 nM
- IC50 [2]: 5700 nM
- IC50 [3]: 4300 nM
- IC50 [4]: 3600 nM

SMILES: Nc1nc(N)c(-c2ccccc2)c(CCCc2ccccc2)n1
- IC50 [1]: 210 nM
- IC50 [2]: 8600 nM
- IC50 [3]: 2700 nM
- IC50 [4]: 2700 nM

SMILES: NC1=NC(c2cccc(Oc3cc(Cl)cc(Cl)c3)c2)N(c2cccc(Cl)c2)C(N)=N1 (stereo unspecified) [1-(3-Chloro-phenyl)-6-[3-(3,5-dichloro-phenoxy)-phenyl]-1,6-dihydro-[1,3,5]triazine-2,4-diamine]
- IC50 [1]: 5500 nM
- IC50 [2]: 3900 nM
- IC50 [5]: 3100 nM
- Ki [6]: 1.8 nM
- IC50 [7]: 50 nM
- IC50 [3]: 3400 nM
- IC50 [4]: 3900 nM

SMILES: CCCCCCCC1N=C(N)N=C(N)N1c1cccc(Cl)c1 (stereo unspecified) [1-(3-Chloro-phenyl)-6-heptyl-1,6-dihydro-[1,3,5]triazine-2,4-diamine]
- IC50 [1]: 40 nM
- IC50 [2]: 2500 nM
- IC50 [5]: 260 nM
- Ki [6]: 2.7 nM
- IC50 [7]: 4 nM
- IC50 [3]: 330 nM
- IC50 [4]: 140 nM

SMILES: CCCCCCC1(C)N=C(N)N=C(N)N1c1cccc(Cl)c1 (stereo unspecified) [1-(3-Chloro-phenyl)-6-hexyl-6-methyl-1,6-dihydro-[1,3,5]triazine-2,4-diamine]
- IC50 [1]: 60 nM
- IC50 [2]: 3200 nM
- IC50 [5]: 480 nM
- Ki [6]: 2.4 nM
- IC50 [3]: 510 nM
- IC50 [4]: 490 nM

SMILES: CC(C)C1(C)N=C(N)N=C(N)N1c1cccc(Cl)c1 (stereo unspecified) [1-(3-Chloro-phenyl)-6-isopropyl-6-methyl-1,6-dihydro-[1,3,5]triazine-2,4-diamine]
- Ki [6]: 25.5 nM

SMILES: NC1=NC(c2cccc(OCCCOc3cc(Cl)c(Cl)cc3Cl)c2)N(c2cccc(Cl)c2)C(N)=N1 (stereo unspecified) [1-(3-chlorophenyl)-6-(3-(3-(2,4,5-trichlorophenoxy)propoxy)phenyl)-1,6-dihydro-1,3,5-triazine-2,4-diamine]
- IC50 [1]: 3000 nM
- IC50 [2]: 8600 nM
- IC50 [5]: 7400 nM
- Ki [6]: 4 nM
- IC50 [7]: 370 nM
- IC50 [3]: 3200 nM
- IC50 [4]: 5200 nM

SMILES: NC1=NC(c2cccc(Oc3cccc(C(F)(F)F)c3)c2)N(c2cccc(Cl)c2)C(N)=N1 (stereo unspecified) [1-(3-chlorophenyl)-6-(3-(3-(trifluoromethyl)phenoxy)phenyl)-1,6-dihydro-1,3,5-triazine-2,4-diamine]
- IC50 [1]: 3200 nM
- IC50 [2]: 3200 nM
- IC50 [5]: 2800 nM
- Ki [6]: 2.7 nM
- IC50 [7]: 180 nM
- IC50 [3]: 2800 nM
- IC50 [4]: 3400 nM

SMILES: NC1=NC(c2cccc(Oc3ccccc3)c2)N(c2cccc(Cl)c2)C(N)=N1 (stereo unspecified) [1-(3-chlorophenyl)-6-(3-phenoxyphenyl)-1,6-dihydro-1,3,5-triazine-2,4-diamine]
- IC50 [1]: 2200 nM
- IC50 [2]: 3600 nM
- IC50 [5]: 2700 nM
- Ki [6]: 1.1 nM
- IC50 [7]: 60 nM
- IC50 [3]: 3500 nM
- IC50 [4]: 3400 nM

SMILES: NC1=NC(c2ccc(Oc3ccccc3)cc2)N(c2cccc(Cl)c2)C(N)=N1 (stereo unspecified) [1-(3-chlorophenyl)-6-(4-phenoxyphenyl)-1,6-dihydro-1,3,5-triazine-2,4-diamine]
- IC50 [1]: 650 nM
- IC50 [2]: 3300 nM
- IC50 [5]: 3100 nM
- Ki [6]: 0.7 nM
- IC50 [7]: 4 nM
- IC50 [3]: 740 nM
- IC50 [4]: 3300 nM

SMILES: CCCOc1ccc(C2N=C(N)N=C(N)N2c2cccc(Cl)c2)cc1 (stereo unspecified) [1-(3-chlorophenyl)-6-(4-propoxyphenyl)-1,6-dihydro-1,3,5-triazine-2,4-diamine]
- IC50 [1]: 250 nM
- IC50 [2]: 2900 nM
- IC50 [5]: 1000 nM
- IC50 [7]: 4 nM
- IC50 [3]: 380 nM
- IC50 [4]: 2900 nM

SMILES: CCCC1(C)N=C(N)N=C(N)N1c1cccc(Cl)c1 (stereo unspecified) [1-(3-chlorophenyl)-6-methyl-6-propyl-1,6-dihydro-1,3,5-triazine-2,4-diamine]
- IC50 [1]: 180 nM
- IC50 [2]: 1100 nM
- IC50 [5]: 180 nM
- Ki [6]: 4.6 nM
- IC50 [3]: 280 nM
- IC50 [4]: 290 nM

SMILES: NC1=NC(c2ccccc2)N(c2cccc(Cl)c2)C(N)=N1 (stereo unspecified) [1-(3-chlorophenyl)-6-phenyl-1,6-dihydro-1,3,5-triazine-2,4-diamine]
- IC50 [1]: 560 nM
- IC50 [2]: 800 nM
- IC50 [5]: 310 nM
- IC50 [7]: 20 nM
- IC50 [3]: 200 nM
- IC50 [4]: 250 nM

SMILES: NC1=NC(c2cccc(Oc3ccccc3)c2)N(c2ccc(Cl)cc2)C(N)=N1 (stereo unspecified) [1-(4-Chloro-phenyl)-6-(3-phenoxy-phenyl)-1,6-dihydro-[1,3,5]triazine-2,4-diamine]
- Ki [6]: 0.5 nM

SMILES: CC(C)C1(C)N=C(N)N=C(N)N1c1ccc(Cl)cc1 (stereo unspecified) [1-(4-Chloro-phenyl)-6-isopropyl-6-methyl-1,6-dihydro-[1,3,5]triazine-2,4-diamine]
- Ki [6]: 36.5 nM

SMILES: CCCC1(C)N=C(N)N=C(N)N1c1ccc(Cl)cc1 (stereo unspecified) [1-(4-Chloro-phenyl)-6-methyl-6-propyl-1,6-dihydro-[1,3,5]triazine-2,4-diamine]
- Ki [6]: 3.5 nM

SMILES: NC1=NC(c2ccc(Oc3ccccc3)cc2)N(c2ccc(Cl)cc2)C(N)=N1 (stereo unspecified) [1-(4-chlorophenyl)-6-(4-phenoxyphenyl)-1,6-dihydro-1,3,5-triazine-2,4-diamine]
- IC50 [1]: 120 nM
- IC50 [5]: 3100 nM
- Ki [6]: 0.4 nM
- IC50 [7]: 40 nM
- IC50 [3]: 3200 nM
- IC50 [4]: 4800 nM

SMILES: CCCCCCC1(C)N=C(N)N=C(N)N1c1ccc(Cl)cc1 (stereo unspecified) [1-(4-chlorophenyl)-6-hexyl-6-methyl-1,6-dihydro-1,3,5-triazine-2,4-diamine]
- IC50 [1]: 20 nM
- IC50 [2]: 6400 nM
- IC50 [5]: 2400 nM
- Ki [6]: 0.6 nM
- IC50 [7]: 1900 nM
- IC50 [3]: 3300 nM
- IC50 [4]: 4100 nM

SMILES: Nc1nc(N)c(-c2cccc(Cl)c2)c(CCCOC(=O)c2ccccc2)n1 [3-(2,6-diamino-5-(3-chlorophenyl)pyrimidin-4-yl)propyl benzoate]
- IC50 [1]: 2100 nM
- IC50 [2]: 7500 nM
- Ki [6]: 1.5 nM
- IC50 [3]: 2000 nM
- IC50 [4]: 1900 nM

SMILES: Nc1nc(N)c(-c2cccc(Cl)c2)c(CCCO)n1 [3-[2,6-Diamino-5-(3-chloro-phenyl)-pyrimidin-4-yl]-propan-1-ol]
- IC50 [1]: 1100 nM
- IC50 [2]: 6200 nM
- Ki [6]: 9.2 nM
- IC50 [3]: 4500 nM
- IC50 [4]: 1900 nM

SMILES: COc1ccc(CCCc2nc(N)nc(N)c2-c2cccc(Cl)c2)cc1 [5-(3-Chloro-phenyl)-6-[3-(4-methoxy-phenyl)-propyl]-pyrimidine-2,4-diamine]
- IC50 [1]: 410 nM
- IC50 [2]: 4700 nM
- IC50 [3]: 4000 nM
- IC50 [4]: 2700 nM

SMILES: Nc1nc(N)c(-c2cccc(Cl)c2)c(CCOCCCOc2ccccc2)n1 [5-(3-chlorophenyl)-6-[2-(3-phenoxypropoxy)ethyl]pyrimidine-2,4-diamine]
- IC50 [1]: 350 nM
- IC50 [2]: 4600 nM
- IC50 [3]: 4500 nM
- IC50 [4]: 2900 nM

SMILES: CCc1nc(N)nc(N)c1-c1cccc(Cl)c1 [5-(3-chlorophenyl)-6-ethylpyrimidine-2,4-diamine]
- IC50 [1]: 420 nM
- IC50 [2]: 9100 nM
- IC50 [3]: 3900 nM
- IC50 [4]: 2500 nM

SMILES: NC1=NC(c2cccc(Oc3ccc(Cl)cc3)c2)N(c2cccc(Cl)c2)C(N)=N1 (stereo unspecified) [6-(3-(4-chlorophenoxy)phenyl)-1-(3-chlorophenyl)-1,6-dihydro-1,3,5-triazine-2,4-diamine]
- IC50 [1]: 3900 nM
- IC50 [2]: 3200 nM
- IC50 [5]: 2600 nM
- Ki [6]: 1.3 nM
- IC50 [7]: 390 nM
- IC50 [3]: 2000 nM
- IC50 [4]: 3100 nM

SMILES: NC1=NC(c2cccc(Oc3ccc(Cl)cc3)c2)N(c2ccc(Cl)cc2)C(N)=N1 (stereo unspecified) [6-(3-(4-chlorophenoxy)phenyl)-1-(4-chlorophenyl)-1,6-dihydro-1,3,5-triazine-2,4-diamine]
- IC50 [1]: 2800 nM
- IC50 [5]: 3300 nM
- Ki [6]: 1.4 nM
- IC50 [7]: 420 nM

SMILES: NC1=NC(c2cccc(OCc3ccccc3)c2)N(c2cccc(Cl)c2)C(N)=N1 (stereo unspecified) [6-(3-(benzyloxy)phenyl)-1-(3-chlorophenyl)-1,6-dihydro-1,3,5-triazine-2,4-diamine]
- IC50 [1]: 4000 nM
- IC50 [5]: 4900 nM
- Ki [6]: 2.3 nM
- IC50 [7]: 190 nM
- IC50 [3]: 3300 nM
- IC50 [4]: 7500 nM

SMILES: NC1=NC(c2cccc(OCc3ccccc3)c2)N(c2ccc(Cl)cc2)C(N)=N1 (stereo unspecified) [6-(3-Benzyloxy-phenyl)-1-(4-chloro-phenyl)-1,6-dihydro-[1,3,5]triazine-2,4-diamine]
- Ki [6]: 0.7 nM

SMILES: CCCCCCc1nc(N)nc(N)c1-c1ccccc1 [6-hexyl-5-phenylpyrimidine-2,4-diamine]
- IC50 [1]: 60 nM
- IC50 [2]: 6400 nM
- IC50 [3]: 2300 nM
- IC50 [4]: 3000 nM

SMILES: CC(=O)OCCCc1nc(N)nc(N)c1-c1ccccc1 [Acetic acid 3-(2,6-diamino-5-phenyl-pyrimidin-4-yl)-propyl ester]
- Ki [6]: 10.6 nM

SMILES: CC(=O)OCCCc1nc(N)nc(N)c1-c1cccc(Cl)c1 [Acetic acid 3-[2,6-diamino-5-(3-chloro-phenyl)-pyrimidin-4-yl]-propyl ester]
- IC50 [1]: 1600 nM
- IC50 [2]: 5300 nM
- IC50 [3]: 2100 nM
- IC50 [4]: 1800 nM

SMILES: Nc1nc(N)c(-c2ccccc2)c(CCCOC(=O)c2ccccc2)n1 [Benzoic acid 3-(2,6-diamino-5-phenyl-pyrimidin-4-yl)-propyl ester]
- Ki [6]: 3.4 nM

SMILES: CC1(C)N=C(N)N=C(N)N1c1ccc(Cl)cc1 [Chlorazin]
- IC50 [1]: 40 nM
- IC50 [2]: > 100000 nM
- IC50 [7]: 3700 nM
- IC50 [3]: 5800 nM
- IC50 [4]: 37900 nM

SMILES: Nc1nc(N)c(-c2cccc(Cl)c2)c(CCCOC(=O)OCc2ccccc2)n1 [benzyl 3-(2,6-diamino-5-(3-chlorophenyl)pyrimidin-4-yl)propyl carbonate]
- IC50 [1]: 1900 nM
- IC50 [2]: 5900 nM
- Ki [6]: 1.2 nM
- IC50 [3]: 4100 nM
- IC50 [4]: 1900 nM
